Results from PubChem BioAssay (NCI).
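Method: 48-hour compound exposure of cells in 96-well plates, five concentrations, linear interpolation of endpoints. The concentration for 50% growth inhibition is given as GI50. Definition used: TGI = concentration required for complete inhibition of growth.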

Legend:
Assay in all cases: NCI anticancer screen, dose series, 48 h
786-0 renal = test system: 786-0 renal
A498 renal = test system: A498 renal
A549 NSCLC = test system: A549 NSCLC
ACHN renal = test system: ACHN renal
BT-549 breast = test system: BT-549 breast
CAKI-1 renal = test system: CAKI-1 renal
CCRF-CEM leukemia = test system: CCRF-CEM leukemia
COLO 205 colon = test system: COLO 205 colon
DU-145 prostate = test system: DU-145 prostate
EKVX NSCLC = test system: EKVX NSCLC
HCC-2998 colon = test system: HCC-2998 colon
HCT-116 colon = test system: HCT-116 colon
HCT-15 colon = test system: HCT-15 colon
HL-60(TB) leukemia = test system: HL-60(TB) leukemia
HOP-62 NSCLC = test system: HOP-62 NSCLC
HOP-92 NSCLC = test system: HOP-92 NSCLC
HS 578T breast = test system: HS 578T breast
HT29 colon = test system: HT29 colon
IGROV1 ovarian = test system: IGROV1 ovarian
K-562 leukemia = test system: K-562 leukemia
KM12 colon = test system: KM12 colon
LOX IMVI melanoma = test system: LOX IMVI melanoma
M14 melanoma = test system: M14 melanoma
MALME-3M melanoma = test system: MALME-3M melanoma
MCF7 breast = test system: MCF7 breast
MDA-MB-231 breast = test system: MDA-MB-231 breast
MDA-MB-435 = test system: MDA-MB-435
MDA-MB-468 breast = test system: MDA-MB-468 breast
MOLT-4 leukemia = test system: MOLT-4 leukemia
NCI-H226 lung = test system: NCI-H226 lung
NCI-H23 lung = test system: NCI-H23 lung
NCI-H460 lung = test system: NCI-H460 lung
NCI-H522 lung = test system: NCI-H522 lung
NCI/ADR-RES ovarian = test system: NCI/ADR-RES ovarian
OVCAR-3 ovarian = test system: OVCAR-3 ovarian
OVCAR-4 ovarian = test system: OVCAR-4 ovarian
OVCAR-5 ovarian = test system: OVCAR-5 ovarian
OVCAR-8 ovarian = test system: OVCAR-8 ovarian
PC-3 prostate = test system: PC-3 prostate
RPMI-8226 leukemia = test system: RPMI-8226 leukemia
RXF 393 renal = test system: RXF 393 renal
SF-268 CNS = test system: SF-268 CNS
SF-295 CNS = test system: SF-295 CNS
SF-539 CNS = test system: SF-539 CNS
SK-MEL-2 melanoma = test system: SK-MEL-2 melanoma
SK-MEL-28 melanoma = test system: SK-MEL-28 melanoma
SK-MEL-5 melanoma = test system: SK-MEL-5 melanoma
SK-OV-3 ovarian = test system: SK-OV-3 ovarian
SN12C renal = test system: SN12C renal
SNB-19 CNS = test system: SNB-19 CNS
SNB-75 CNS = test system: SNB-75 CNS
SR leukemia = test system: SR leukemia
SW-620 colon = test system: SW-620 colon
T-47D breast = test system: T-47D breast
TK-10 renal = test system: TK-10 renal
U251 CNS = test system: U251 CNS
UACC-257 melanoma = test system: UACC-257 melanoma
UACC-62 melanoma = test system: UACC-62 melanoma
UO-31 renal = test system: UO-31 renal

`O=C1Nc2cc(-c3ccc(NS(=O)(=O)c4ccc(-c5ccccc5)cc4)cc3)ccc2/C1=C/c1ccc[nH]1` showed a GI50 (786-0 renal) of 3.91 µM, a TGI (786-0 renal) of 13.9 µM and a GI50 (A498 renal) of 12.6 µM. For the same compound, the TGI (A498 renal) was 25.1 µM, the GI50 (A549 NSCLC) was 1.82 µM and the TGI (A549 NSCLC) was 4.86 µM. The GI50 (ACHN renal) was 6.16 µM, the TGI (ACHN renal) was 18.7 µM and the GI50 (BT-549 breast) was 2.49 µM. It also gave a TGI (BT-549 breast) of 7.75 µM, a GI50 (CAKI-1 renal) of 5.64 µM and a TGI (CAKI-1 renal) of 18.4 µM. It also gave a GI50 (CCRF-CEM leukemia) of 5.82 µM, a TGI (CCRF-CEM leukemia) of 18.6 µM and a GI50 (COLO 205 colon) of 3.7 µM. For the same compound, the TGI (COLO 205 colon) was 14 µM, the GI50 (DU-145 prostate) was 2.09 µM and the TGI (DU-145 prostate) was 4.59 µM. It also gave a GI50 (EKVX NSCLC) of 0.225 µM, a TGI (EKVX NSCLC) of 8.94 µM and a GI50 (HCC-2998 colon) of 4.88 µM. For the same compound, the TGI (HCC-2998 colon) was 28.4 µM, the GI50 (HCT-116 colon) was 3.28 µM and the TGI (HCT-116 colon) was 11.2 µM. The GI50 (HCT-15 colon) was 2.26 µM, the TGI (HCT-15 colon) was 7.86 µM and the GI50 (HL-60(TB) leukemia) was 7.67 µM. For the same compound, the TGI (HL-60(TB) leukemia) was 31.7 µM, the GI50 (HOP-62 NSCLC) was 8.59 µM and the TGI (HOP-62 NSCLC) was 21.8 µM. For the same compound, the GI50 (HOP-92 NSCLC) was 2.2 µM, the TGI (HOP-92 NSCLC) was 7.22 µM and the GI50 (HS 578T breast) was 12.2 µM. The TGI (HS 578T breast) was 56.7 µM, the GI50 (HT29 colon) was 2.42 µM and the TGI (HT29 colon) was 6.71 µM. The GI50 (IGROV1 ovarian) was 8.34 µM, the TGI (IGROV1 ovarian) was 22.2 µM and the GI50 (K-562 leukemia) was 3.8 µM. The TGI (K-562 leukemia) was 16.6 µM, the GI50 (KM12 colon) was 2.48 µM and the TGI (KM12 colon) was 18.7 µM. It also gave a GI50 (LOX IMVI melanoma) of 2.59 µM, a TGI (LOX IMVI melanoma) of 6.82 µM and a GI50 (M14 melanoma) of 4.7 µM. The TGI (M14 melanoma) was 16.8 µM, the GI50 (MALME-3M melanoma) was 2.79 µM and the TGI (MALME-3M melanoma) was 9.7 µM. For the same compound, the GI50 (MCF7 breast) was 0.0746 µM, the TGI (MCF7 breast) was 1.54 µM and the GI50 (MDA-MB-231 breast) was 2.96 µM. It also gave a TGI (MDA-MB-231 breast) of 11.6 µM, a GI50 (MDA-MB-435) of 5.71 µM and a TGI (MDA-MB-435) of 21 µM. It also gave a GI50 (MDA-MB-468 breast) of 0.0402 µM, a TGI (MDA-MB-468 breast) of 1.04 µM and a GI50 (MOLT-4 leukemia) of 3.88 µM. For the same compound, the TGI (MOLT-4 leukemia) was 17.7 µM, the GI50 (NCI-H226 lung) was 1.9 µM and the TGI (NCI-H226 lung) was 14.8 µM. For the same compound, the GI50 (NCI-H23 lung) was 1.2 µM, the TGI (NCI-H23 lung) was 5.91 µM and the GI50 (NCI-H460 lung) was 0.351 µM. For the same compound, the TGI (NCI-H460 lung) was 2.13 µM, the GI50 (NCI-H522 lung) was 2.27 µM and the TGI (NCI-H522 lung) was 7.94 µM. It also gave a GI50 (NCI/ADR-RES ovarian) of 6.29 µM, a TGI (NCI/ADR-RES ovarian) of 30.9 µM and a GI50 (OVCAR-3 ovarian) of 1.94 µM. It also gave a TGI (OVCAR-3 ovarian) of 4.65 µM, a GI50 (OVCAR-4 ovarian) of 2.1 µM and a TGI (OVCAR-4 ovarian) of 11.9 µM. For the same compound, the GI50 (OVCAR-5 ovarian) was 3.42 µM, the TGI (OVCAR-5 ovarian) was 14.3 µM and the GI50 (OVCAR-8 ovarian) was 3.45 µM. For the same compound, the TGI (OVCAR-8 ovarian) was 12.2 µM, the GI50 (PC-3 prostate) was 3.27 µM and the TGI (PC-3 prostate) was 18.1 µM. The GI50 (RPMI-8226 leukemia) was 3.09 µM, the TGI (RPMI-8226 leukemia) was 15.7 µM and the GI50 (RXF 393 renal) was 2.48 µM. The TGI (RXF 393 renal) was 5.56 µM, the GI50 (SF-268 CNS) was 4.26 µM and the TGI (SF-268 CNS) was 16.3 µM. The GI50 (SF-295 CNS) was 7.29 µM, the TGI (SF-295 CNS) was 19.8 µM and the GI50 (SF-539 CNS) was 3.66 µM. The TGI (SF-539 CNS) was 14.7 µM, the GI50 (SK-MEL-2 melanoma) was 11.8 µM and the TGI (SK-MEL-2 melanoma) was 24.4 µM. The GI50 (SK-MEL-28 melanoma) was 3.77 µM, the TGI (SK-MEL-28 melanoma) was 13.5 µM and the GI50 (SK-MEL-5 melanoma) was 6.91 µM. It also gave a TGI (SK-MEL-5 melanoma) of 21.8 µM, a GI50 (SK-OV-3 ovarian) of 13.3 µM and a TGI (SK-OV-3 ovarian) of 26 µM. The GI50 (SN12C renal) was 3.07 µM, the TGI (SN12C renal) was 12 µM and the GI50 (SNB-19 CNS) was 5.91 µM. For the same compound, the TGI (SNB-19 CNS) was 18.7 µM, the GI50 (SNB-75 CNS) was 12.8 µM and the TGI (SNB-75 CNS) was 35.6 µM. The GI50 (SR leukemia) was 1.9 µM, the TGI (SR leukemia) was 10.9 µM and the GI50 (SW-620 colon) was 2.45 µM. For the same compound, the TGI (SW-620 colon) was 6.56 µM, the GI50 (T-47D breast) was 0.136 µM and the TGI (T-47D breast) was 3.57 µM. For the same compound, the GI50 (TK-10 renal) was 2.66 µM, the TGI (TK-10 renal) was 11 µM and the GI50 (U251 CNS) was 2.18 µM. For the same compound, the TGI (U251 CNS) was 5.73 µM, the GI50 (UACC-257 melanoma) was 5.84 µM and the TGI (UACC-257 melanoma) was 20.4 µM. For the same compound, the GI50 (UACC-62 melanoma) was 5.37 µM, the TGI (UACC-62 melanoma) was 19.7 µM and the GI50 (UO-31 renal) was 10.7 µM. It also gave a TGI (UO-31 renal) of 29.1 µM.
